Here are results for three compounds from article PMC3203342 (Nature, 2011).

In one assay the target is T1, Or59b/Orco in ab2A OSN (Drosophila melanogaster, UniProt Q9W1P8).
T1 sequence (Q9W1P8 1-398): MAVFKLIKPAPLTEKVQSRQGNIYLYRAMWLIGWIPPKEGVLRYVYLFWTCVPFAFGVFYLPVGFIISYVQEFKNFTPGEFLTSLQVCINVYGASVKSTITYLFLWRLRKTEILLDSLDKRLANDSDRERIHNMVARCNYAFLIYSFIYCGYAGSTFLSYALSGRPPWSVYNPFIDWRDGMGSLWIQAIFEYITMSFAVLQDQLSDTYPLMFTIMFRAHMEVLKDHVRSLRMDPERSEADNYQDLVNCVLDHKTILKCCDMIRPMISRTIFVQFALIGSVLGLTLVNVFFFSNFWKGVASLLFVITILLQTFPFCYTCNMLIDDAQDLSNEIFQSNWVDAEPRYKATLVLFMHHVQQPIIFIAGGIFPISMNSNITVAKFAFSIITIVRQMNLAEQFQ
T1 sequence (Q9VNB5 1-486 partner): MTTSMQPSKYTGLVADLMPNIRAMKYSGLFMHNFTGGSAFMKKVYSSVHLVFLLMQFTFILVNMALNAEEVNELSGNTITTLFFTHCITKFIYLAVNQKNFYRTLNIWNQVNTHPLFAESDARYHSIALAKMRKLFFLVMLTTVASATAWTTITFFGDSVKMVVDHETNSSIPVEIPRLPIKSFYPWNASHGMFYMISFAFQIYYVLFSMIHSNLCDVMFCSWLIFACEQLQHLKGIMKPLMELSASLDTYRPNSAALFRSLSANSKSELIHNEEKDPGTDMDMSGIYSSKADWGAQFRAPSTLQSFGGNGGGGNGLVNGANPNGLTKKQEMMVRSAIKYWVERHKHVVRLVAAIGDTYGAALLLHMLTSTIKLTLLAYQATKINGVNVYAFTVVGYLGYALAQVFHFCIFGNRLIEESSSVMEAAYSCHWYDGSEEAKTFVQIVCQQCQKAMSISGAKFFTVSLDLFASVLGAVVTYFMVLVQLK
Nature of the assay: single sensillum recording, dose-response. To be noted: native ab2A neuron; vapour; inhibitor of spontaneous activity. In kind it is cell-based.

A further assay deals with T2, Or85a/Orco in ab2B OSN (Drosophila melanogaster, UniProt Q9VHS4).
T2 sequence (Q9VHS4 1-397): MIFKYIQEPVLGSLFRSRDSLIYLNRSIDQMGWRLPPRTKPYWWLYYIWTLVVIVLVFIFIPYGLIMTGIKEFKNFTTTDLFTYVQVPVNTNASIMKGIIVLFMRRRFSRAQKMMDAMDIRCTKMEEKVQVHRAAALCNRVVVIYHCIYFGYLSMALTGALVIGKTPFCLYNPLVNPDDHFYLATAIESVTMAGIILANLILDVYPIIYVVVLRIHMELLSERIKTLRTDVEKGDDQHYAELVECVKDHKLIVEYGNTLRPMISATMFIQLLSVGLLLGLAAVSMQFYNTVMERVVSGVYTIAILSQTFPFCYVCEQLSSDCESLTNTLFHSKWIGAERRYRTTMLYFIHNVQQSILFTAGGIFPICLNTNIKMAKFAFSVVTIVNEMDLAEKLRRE
T2 sequence (Q9VNB5 1-486 partner): T1 sequence (Q9VNB5 1-486 partner)
Nature of the assay: single sensillum recording, dose-response. The format is cell-based. To be noted: native ab2B neuron; vapour; agonist.

Molecules are shown by their SMILES.

`CCCCCCCCO` [1-octanol]: on Or59b/Orco in ab2A OSN, the Δ spikes/s entry was “DEET interfered with inhibition of Or59b/Orco by 1-octen-3-ol, 1-octanol, and linalool”.

Regarding `C=CC(O)CCCCC` (stereo not drawn) [1-octen-3-ol], at Or85a/Orco in ab2B OSN, the Δ spikes/s entry is on record as “activating the ab2B neuron expressing Or85a/Orco (Fig. 1e)”. Consider `C=C[C@](C)(O)CCC=C(C)C` [linalool], for which the Δ spikes/s entry at Or59b/Orco in ab2A OSN is “DEET interfered with inhibition of Or59b/Orco by 1-octen-3-ol, 1-octanol, and linalool”.
